From PubChem BioAssay AID248 (DTP/NCI, 2004)
Several values for one entry are separate records, joined by “and”; a condition that tells them apart may be missing. Equal entries are not always repeated. Toxic doses and inconclusive results are not listed. Rule as the data show it: active = T/C of 150% or more; inactive = T/C below 125%.

Tested on: L1210 leukemia ip in BDF1 mice, survival T/C
Assay: NCI In Vivo Anticancer Drug Screen. Data for tumor model L1210 Leukemia (intraperitoneal) in B6D2F1 (BDF1) mice
Settings: endpoint: mean survival time, higher = longer survival
How it was run: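 Transplanted-tumor mice were given test agent; controls received vehicle only. Survival readings from the two groups were divided (treated over control).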

[1] = dose: 50.0 mg/kg/injection, schedule: Q04DX002 (ip), vehicle: Klucel (hydroxypropylcellulose) (HPC)
[2] = dose: 100.0 mg/kg/injection, schedule: Q04DX002 (ip), vehicle: Klucel (hydroxypropylcellulose) (HPC)
[3] = dose: 200.0 mg/kg/injection, schedule: Q04DX002 (ip), vehicle: Klucel (hydroxypropylcellulose) (HPC)
[4] = dose: 100.0 mg/kg/injection, schedule: Q04DX002 (ip), vehicle: saline
[5] = dose: 200.0 mg/kg/injection, schedule: Q04DX002 (ip), vehicle: saline
[6] = dose: 25.0 mg/kg/injection, schedule: Q01DX009 (ip), vehicle: Klucel (hydroxypropylcellulose) (HPC)
[7] = dose: 50.0 mg/kg/injection, schedule: Q01DX009 (ip), vehicle: Klucel (hydroxypropylcellulose) (HPC)
[8] = dose: 100.0 mg/kg/injection, schedule: Q01DX001 (ip), vehicle: Klucel (hydroxypropylcellulose) (HPC)
[9] = dose: 200.0 mg/kg/injection, schedule: Q01DX001 (ip), vehicle: Klucel (hydroxypropylcellulose) (HPC)
[10] = dose: 400.0 mg/kg/injection, schedule: Q01DX001 (ip), vehicle: Klucel (hydroxypropylcellulose) (HPC)
[11] = dose: 100.0 mg/kg/injection, schedule: Q04DX003 (ip), vehicle: saline
[12] = dose: 200.0 mg/kg/injection, schedule: Q04DX003 (ip), vehicle: saline
[13] = dose: 400.0 mg/kg/injection, schedule: Q04DX002 (ip), vehicle: Klucel (hydroxypropylcellulose) (HPC)
[14] = dose: 100.0 mg/kg/injection, schedule: Q01DX009 (ip), vehicle: Klucel (hydroxypropylcellulose) (HPC)
[15] = dose: 100.0 mg/kg/injection, schedule: Q04DX003 (ip), vehicle: Klucel (hydroxypropylcellulose) (HPC)
[16] = dose: 200.0 mg/kg/injection, schedule: Q01DX009 (ip), vehicle: Klucel (hydroxypropylcellulose) (HPC)
[17] = dose: 200.0 mg/kg/injection, schedule: Q04DX003 (ip), vehicle: Klucel (hydroxypropylcellulose) (HPC)
[18] = dose: 400.0 mg/kg/injection, schedule: Q01DX009 (ip), vehicle: Klucel (hydroxypropylcellulose) (HPC)
[19] = dose: 400.0 mg/kg/injection, schedule: Q04DX003 (ip), vehicle: Klucel (hydroxypropylcellulose) (HPC)
[20] = dose: 100.0 mg/kg/injection, schedule: Q04DX003 (ip), vehicle: saline with Tween-80
[21] = dose: 200.0 mg/kg/injection, schedule: Q04DX003 (ip), vehicle: saline with Tween-80
[22] = dose: 400.0 mg/kg/injection, schedule: Q04DX003 (ip), vehicle: saline with Tween-80

Measured: T/C

O=C(O)c1cc(=O)c2cccc(Cl)c2[nH]1
inactive: [1] 103 % of control | [2] 100 % of control | [3] 96 % of control

Cc1ccn(C)n1
inactive: [4] 103 % of control | [5] 97 % of control | dose: 400.0 mg/kg/injection, schedule: Q04DX002 (ip), vehicle: saline 93 % of control

NC(N)=N/N=C(/c1ccccc1)c1ccccc1F
inactive: dose: 15.0 mg/kg/injection, schedule: Q01DX Z (ip), vehicle: saline 111 % of control | dose: 30.0 mg/kg/injection, schedule: Q01DX Z (ip), vehicle: saline 100 % of control | dose: 60.0 mg/kg/injection, schedule: Q01DX Z (ip), vehicle: saline 108 % of control | dose: 120.0 mg/kg/injection, schedule: Q01DX Z (ip), vehicle: saline 103 % of control | dose: 120.0 mg/kg/injection, schedule: Q01DX Z (oral), vehicle: saline 105 % of control | dose: 240.0 mg/kg/injection, schedule: Q01DX Z (ip), vehicle: saline 95 % of control | dose: 240.0 mg/kg/injection, schedule: Q01DX Z (oral), vehicle: saline 105 % of control | dose: 480.0 mg/kg/injection, schedule: Q01DX Z (ip), vehicle: saline 96 % of control | dose: 480.0 mg/kg/injection, schedule: Q01DX Z (oral), vehicle: saline 105 % of control

O=C(c1ccccn1)C(O)c1ccccn1 (stereo not drawn)
inactive: [1] 96 % of control | [2] 99 % of control | [3] 96 % of control

Cc1cc(C)nc(NCC(=O)O)n1
inactive: dose: 50.0 mg/kg/injection, schedule: Q04DX002 (ip), vehicle: saline 95 % of control | [4] 95 % of control | [5] 95 % of control

CC1(C)OCC(C2OC(C)(C)OC2C(CO)Nc2ccc([N+](=O)[O-])cc2[N+](=O)[O-])O1 (stereo not drawn)
inactive: dose: 100.0 mg/kg/injection, schedule: Q01DX001 (ip), vehicle: saline 98 % of control | dose: 200.0 mg/kg/injection, schedule: Q01DX001 (ip), vehicle: saline 93 % of control | dose: 400.0 mg/kg/injection, schedule: Q01DX001 (ip), vehicle: saline 93 % of control

O=C1NC(=S)S/C1=C\c1c(Cl)cccc1Cl
inactive: dose: 75.0 mg/kg/injection, schedule: Q01DX001 (ip), vehicle: other 97 % of control

CC(=O)Oc1cccc2ccc(/C=C/c3cccc[n+]3C)nc12
inactive: dose: 4.0 mg/kg/injection, schedule: Q01DX015 (ip), vehicle: carboxymethylcellulose (CMC) 95 % of control | dose: 8.0 mg/kg/injection, schedule: Q01DX015 (ip), vehicle: carboxymethylcellulose (CMC) 107 % of control | dose: 16.0 mg/kg/injection, schedule: Q01DX015 (ip), vehicle: carboxymethylcellulose (CMC) 97 % of control | dose: 32.0 mg/kg/injection, schedule: Q01DX015 (ip), vehicle: carboxymethylcellulose (CMC) 102 % of control

Oc1ccccc1/C=N/c1ccccn1
inactive: [6] 106 % of control | [7] 97 % of control

CCCCCCCCCCCCCCCCCCN1CCS(=O)CC1
inactive: [8] 98 % of control | [9] 100 % of control | [10] 102 % of control

CN(C)C(=O)c1cccc(COc2ccc(N)cc2Cl)c1
inactive: [11] 96 % of control | [12] 106 % of control

Cc1c(C(=O)O)c(-c2ccc([N+](=O)[O-])cc2)c(C=O)n1-c1ccccc1
inactive: [2] 91 % of control | [3] 97 % of control | [13] 102 % of control

Cc1ccc(NC(=O)COc2cc(Cl)c(Cl)cc2Cl)c([N+](=O)[O-])c1
inactive: [14] 105 % of control | [15] 106 % of control | [16] 89 % of control | [17] 102 % of control | [18] 89 % of control | [19] 93 % of control

CCOC(=O)C(Cc1ccccc1)N=NNc1nc[nH]c1C(N)=O (stereo not drawn)
inactive: dose: 375.0 mg/kg/injection, schedule: Q01DX001 (ip), vehicle: carboxymethylcellulose (CMC) 96 % of control | dose: 500.0 mg/kg/injection, schedule: Q01DX001 (ip), vehicle: carboxymethylcellulose (CMC) 106 % of control

Cc1cccc(SC(=O)Nc2ccccc2C(F)(F)F)c1
inactive: [6] 103 % of control | [7] 94 % of control | [14] 97 % of control and 102 % of control | [15] 98 % of control | [17] 109 % of control | [19] 93 % of control

COc1ccc(OC)c(NC(=O)Nc2cccc(F)c2)c1
inactive: dose: 100.0 mg/kg/injection, schedule: Q01DX009 (ip), vehicle: gum acacia 90 % of control | dose: 200.0 mg/kg/injection, schedule: Q01DX009 (ip), vehicle: gum acacia 92 % of control

CC(C)(Cc1ccc(Cl)cc1)N=C(N)N
inactive: dose: 25.0 mg/kg/injection, schedule: Q04DX002 (ip), vehicle: Klucel (hydroxypropylcellulose) (HPC) 107 % of control | [1] 95 % of control | [2] 104 % of control

O=C(N/N=C/c1ccc(Cl)cc1)c1ccc(Cl)cc1
inactive: [20] 105 % of control | [21] 98 % of control | [22] 91 % of control

O=C(Nc1ccc(F)cc1)Oc1ccccn1
inactive: [8] 101 % of control | [14] 95 % of control | [2] 94 % of control and 100 % of control | [15] 101 % of control | [9] 104 % of control | [16] 101 % of control and 87 % of control | [3] 94 % of control and 97 % of control | [17] 103 % of control | [10] 93 % of control | [18] 95 % of control and 96 % of control | [13] 94 % of control and 97 % of control | [19] 105 % of control

O=CNC(Cc1ccccc1)Cc1ccccc1
inactive: dose: 5.0 mg/kg/injection, schedule: Q01DX009 (ip), vehicle: Klucel (hydroxypropylcellulose) (HPC) 98 % of control | dose: 5.0 mg/kg/injection, schedule: Q04DX003 (ip), vehicle: Klucel (hydroxypropylcellulose) (HPC) 103 % of control | dose: 10.0 mg/kg/injection, schedule: Q01DX009 (ip), vehicle: Klucel (hydroxypropylcellulose) (HPC) 102 % of control | dose: 10.0 mg/kg/injection, schedule: Q04DX003 (ip), vehicle: Klucel (hydroxypropylcellulose) (HPC) 103 % of control | dose: 20.0 mg/kg/injection, schedule: Q01DX009 (ip), vehicle: Klucel (hydroxypropylcellulose) (HPC) 102 % of control | dose: 20.0 mg/kg/injection, schedule: Q04DX003 (ip), vehicle: Klucel (hydroxypropylcellulose) (HPC) 102 % of control and 107 % of control

COC(=O)c1nc(C(=O)OC)c(C(=O)OC)nc1C(=O)OC
inactive: [20] 88 % of control | [21] 93 % of control | [22] 102 % of control

C=CC(C)(C)CCCC
inactive: [11] 104 % of control | [12] 101 % of control | dose: 400.0 mg/kg/injection, schedule: Q04DX003 (ip), vehicle: saline 110 % of control

CC(=O)NC1C(Nc2ccc(S(=O)(=O)Nc3nccc(C)n3)cc2)OC(CO)C(O)C1O (stereo not drawn)
inactive: dose: 250.0 mg/kg/injection, schedule: Q01DX Z (ip), vehicle: methylcellulose (MC) 94 % of control | dose: 375.0 mg/kg/injection, schedule: Q01DX Z (ip), vehicle: methylcellulose (MC) 93 % of control | dose: 500.0 mg/kg/injection, schedule: Q01DX Z (ip), vehicle: methylcellulose (MC) 102 % of control

Cc1ccc(S(=O)(=O)N(CCO)CCO)cc1
inactive: [15] 101 % of control | [17] 100 % of control | [19] 92 % of control

O=S(=O)(Nc1ccc2ccccc2c1)c1ccc2ccccc2c1
inactive: [15] 91 % of control | [17] 90 % of control | [19] 91 % of control

c1ccc(C2OC2c2ccccc2)cc1 (stereo not drawn)
inactive: [14] 98 % of control | [2] 107 % of control | [15] 110 % of control | [16] 102 % of control | [3] 110 % of control | [17] 100 % of control | [18] 104 % of control | [13] 93 % of control | [19] 109 % of control
